# Patent publication US20220395472A1 (Dermavant Sciences GmbH, priority 2021, published 2022)
# Test system: adults with plaque psoriasis
# Test: Long-term open-label extension study (PSOARING 3): Physician Global Assessment (PGA), treatment episodes, treatment success, remittive effect
# Type: in vivo, human
# Conditions: for Average Duration of Episodes, Mean (SD) / Average Duration of Episodes, Median / Average Duration of Treatment Success, Median / Duration of 1st Episode, Mean (SD) / Duration of 1st Episode, Median / Duration of 1st Success, Mean (SD) / Duration of 1st Success, Median / Duration of 2nd Episode, Mean (SD) / Duration of 2nd Episode, Median / Duration of 2nd Success, Mean (SD) / Duration of 2nd Success, Median / Duration of 3rd Episode, Mean (SD) / Duration of 3rd Episode, Median / Duration of 3rd Success, Mean (SD) / Duration of 3rd Success, Median / Duration of 4th Episode, Mean (SD) / Duration of 4th Episode, Median / Duration of Last Episode, Mean (SD) / Duration of Last Episode, Median / Duration of Last Success, Mean (SD) / Duration of Last Success, Median / Total Duration of Treatment Episodes, Mean (SD) / Total Duration of Treatment Episodes, Median / Total Duration of Treatment Success, Mean (SD) / Total Duration of Treatment Success, Median / Average Duration of Treatment Success (treatment free interval), Mean (SD) / Average Duration of Treatment Success, Mean (SD): ITT; for Average Duration of Treatment Success (treatment free interval), Mean (SD): Overall (n=299)
# Procedure: This extension study consisted of up to 40 weeks of treatment and a 4 week, safety follow up period.
# At the completion of the Week 12 visit of the DB, pivotal Phase 3 study, eligibility of the subjects opting to enroll in this extension study was confirmed. Study visits during the treatment period for all subjects occurred every 4 weeks (±3 days). A phone call was performed at Week 2 (Day 15). Unscheduled visits may have occurred, as needed. Subjects who withdrew from this study before Week 40 returned to the study center for an Early Termination visit. The total duration of this extension study participation was 44 weeks. Subjects in this study were treated as follows based on their PGA score from the Week 12 visit in the DB, pivotal Phase 3 study (Study DMVT 505 3001 or Study DMVT 505 3002).
# The PGA was used to assess the primary efficacy endpoint in this study. The PGA is a clinical tool for assessing the current state/severity of a subject's psoriasis at a given time point. It is a static, 5 point, morphological assessment of overall disease severity, as determined by the Investigator, using the clinical characteristics of erythema, scaling, and plaque thickness/elevation as guidelines; higher PGA scores represent more severe disease (0=clear, 1=almost clear, 2=mild, 3=moderate, and 4=severe). The BSA affected was not considered in scoring of the PGA. Variations of the PGA are frequently used in clinical studies because it is a simple assessment, similar to those used in clinical practice. The PGA was performed first, prior to the % BSA, PASI, and LTS assessments.
# Time to event parameters, such as the time from treatment success to subsequent worsening (PGA≥2) or duration of treatment episode, were summarized by the Kaplan Meier product limit method using OC.
smiles,measurement,setting,value
"CC(C)c1c(O)cc(/C=C/c2ccccc2)cc1O [Tapinarof, 3,5-Dihydroxy-4-isopropyl-trans-stilbene]",PGA 3 - Moderate,"Baseline, Overall",249 (32.8) n (%)
same,PGA 4 - Severe,"Baseline, Overall",23 (3.0) n (%)
same,PGA 0 - Clear,"Baseline, Tapinarof (Pivotal)",73 (14.5) n (%)
same,PGA 1 - Almost Clear,"Baseline, Tapinarof (Pivotal)",144 (28.5) n (%)
same,PGA 2 - Mild,"Baseline, Tapinarof (Pivotal)",188 (37.2) n (%)
same,PGA 3 - Moderate,"Baseline, Tapinarof (Pivotal)",93 (18.4) n (%)
same,PGA 4 - Severe,"Baseline, Tapinarof (Pivotal)",7 (1.4) n (%)
same,"Average Duration of Episodes, Mean (SD)",Overall,162.7 (96.20) days
same,"Average Duration of Episodes, Median",Overall,168.0 days
same,"Average Duration of Treatment Success, Median",Overall,84.0 days
same,"Duration of 1st Episode, Mean (SD)",Overall,163.1 (97.10) days
same,"Duration of 1st Episode, Median",Overall,169.0 days
same,"Duration of 1st Success, Mean (SD)",Overall,100.0 (78.49) days
same,"Duration of 1st Success, Median",Overall,84.0 days
same,"Duration of 2nd Episode, Mean (SD)",Overall,74.0 (55.35) days
same,"Duration of 2nd Episode, Median",Overall,57.0 days
same,"Duration of 2nd Success, Mean (SD)",Overall,65.4 (60.68) days
same,"Duration of 2nd Success, Median",Overall,41.0 days
same,"Duration of 3rd Episode, Mean (SD)",Overall,50.4 (41.38) days
same,"Duration of 3rd Episode, Median",Overall,32.5 days
same,"Duration of 3rd Success, Mean (SD)",Overall,30.0 (26.46) days
same,"Duration of 3rd Success, Median",Overall,28.0 days
same,"Duration of 4th Episode, Mean (SD)",Overall,1.0 (NE) days
same,"Duration of 4th Episode, Median",Overall,1.0 days
same,"Duration of Last Episode, Mean (SD)",Overall,162.4 (98.51) days
same,"Duration of Last Episode, Median",Overall,169.0 days
same,"Duration of Last Success, Mean (SD)",Overall,95.4 (82.18) days
same,"Duration of Last Success, Median",Overall,64.0 days
same,"Total Duration of Treatment Episodes, Mean (SD)",Overall,177.6 (90.38) days
same,"Total Duration of Treatment Episodes, Median",Overall,197.0 days
same,"Total Duration of Treatment Success, Mean (SD)",Overall,119.3 (81.80) days
same,"Total Duration of Treatment Success, Median",Overall,112.0 days
same,"Average Duration of Treatment Success (treatment free interval), Mean (SD)",,97.9 (76.60) days
same,"Average Duration of Treatment Success (treatment free interval), Mean (SD)",listed as tapinarof,97.9 days
same,"Average Duration of Episodes, Mean (SD)",Tapinarof (Pivotal) group,157.1 (97.16) days
same,"Average Duration of Episodes, Median",Tapinarof (Pivotal) group,140.5 days
same,"Average Duration of Treatment Success, Mean (SD)",Tapinarof (Pivotal) group,102.4 (77.90) days
same,"Average Duration of Treatment Success, Median",Tapinarof (Pivotal) group,84.0 days
same,"Duration of 1st Episode, Mean (SD)",Tapinarof (Pivotal) group,156.6 (98.77) days
same,"Duration of 1st Episode, Median",Tapinarof (Pivotal) group,147.5 days
same,"Duration of 1st Success, Mean (SD)",Tapinarof (Pivotal) group,103.0 (80.13) days
same,"Duration of 1st Success, Median",Tapinarof (Pivotal) group,84.0 days
same,"Duration of 2nd Episode, Mean (SD)",Tapinarof (Pivotal) group,80.7 (58.54) days
same,"Duration of 2nd Episode, Median",Tapinarof (Pivotal) group,60.5 days
same,"Duration of 2nd Success, Mean (SD)",Tapinarof (Pivotal) group,76.5 (63.07) days
same,"Duration of 2nd Success, Median",Tapinarof (Pivotal) group,56.0 days
same,"Duration of 3rd Episode, Mean (SD)",Tapinarof (Pivotal) group,49.6 (52.51) days
same,"Duration of 3rd Episode, Median",Tapinarof (Pivotal) group,28.0 days
same,"Duration of 3rd Success, Mean (SD)",Tapinarof (Pivotal) group,32.7 (28.40) days
same,"Duration of 3rd Success, Median",Tapinarof (Pivotal) group,28.5 days
same,"Duration of Last Episode, Mean (SD)",Tapinarof (Pivotal) group,157.6 (99.25) days
same,"Duration of Last Episode, Median",Tapinarof (Pivotal) group,168.0 days
same,"Duration of Last Success, Mean (SD)",Tapinarof (Pivotal) group,101.5 (83.51) days
same,"Duration of Last Success, Median",Tapinarof (Pivotal) group,82.5 days
same,"Total Duration of Treatment Episodes, Mean (SD)",Tapinarof (Pivotal) group,173.2 (92.39) days
same,"Total Duration of Treatment Episodes, Median",Tapinarof (Pivotal) group,196.0 days
same,"Total Duration of Treatment Success, Mean (SD)",Tapinarof (Pivotal) group,125.4 (83.22) days
same,"Total Duration of Treatment Success, Median",Tapinarof (Pivotal) group,116.5 days
same,"Average Duration of Episodes, Mean (SD)",Vehicle (Pivotal) group,173.4 (93.60) days
same,"Average Duration of Episodes, Median",Vehicle (Pivotal) group,195.0 days
same,"Average Duration of Treatment Success, Mean (SD)",Vehicle (Pivotal) group,86.8 (72.58) days
same,"Average Duration of Treatment Success, Median",Vehicle (Pivotal) group,64.0 days
same,"Duration of 1st Episode, Mean (SD)",Vehicle (Pivotal) group,175.5 (92.74) days
same,"Duration of 1st Episode, Median",Vehicle (Pivotal) group,196.0 days
same,"Duration of 1st Success, Mean (SD)",Vehicle (Pivotal) group,92.8 (74.32) days
same,"Duration of 1st Success, Median",Vehicle (Pivotal) group,85.0 days
same,"Duration of 2nd Episode, Mean (SD)",Vehicle (Pivotal) group,57.8 (43.31) days
same,"Duration of 2nd Episode, Median",Vehicle (Pivotal) group,38.0 days
same,"Duration of 2nd Success, Mean (SD)",Vehicle (Pivotal) group,39.1 (45.75) days
same,"Duration of 2nd Success, Median",Vehicle (Pivotal) group,28.0 days
same,"Duration of 3rd Episode, Mean (SD)",Vehicle (Pivotal) group,51.6 (24.51) days
same,"Duration of 3rd Episode, Median",Vehicle (Pivotal) group,56.0 days
same,"Duration of 3rd Success, Mean (SD)",Vehicle (Pivotal) group,19.3 (15.89) days
same,"Duration of 3rd Success, Median",Vehicle (Pivotal) group,28.0 days
same,"Duration of 4th Episode, Mean (SD)",Vehicle (Pivotal) group,1.0 (NE) days
same,"Duration of 4th Episode, Median",Vehicle (Pivotal) group,1.0 days
same,"Duration of Last Episode, Mean (SD)",Vehicle (Pivotal) group,171.4 (96.61) days
same,"Duration of Last Episode, Median",Vehicle (Pivotal) group,195.0 days
same,"Duration of Last Success, Mean (SD)",Vehicle (Pivotal) group,80.5 (77.32) days
same,"Duration of Last Success, Median",Vehicle (Pivotal) group,56.0 days
same,"Total Duration of Treatment Episodes, Mean (SD)",Vehicle (Pivotal) group,185.9 (85.95) days
same,"Total Duration of Treatment Episodes, Median",Vehicle (Pivotal) group,197.0 days
same,"Total Duration of Treatment Success, Mean (SD)",Vehicle (Pivotal) group,104.3 (76.62) days
